From ChEMBL document CHEMBL1201862, “PubChem BioAssay data set” (2004)
Activity calls are given as the source filed them.

Tests used:
[1] = target: T1, Mannose-6-phosphate isomerase (Homo sapiens, UniProt P34949); test: inhibitors of human PMI, primary screen, biochemical, fluorescence intensity, coupled assay (AID 1209)
T1 sequence (P34949 whole entry): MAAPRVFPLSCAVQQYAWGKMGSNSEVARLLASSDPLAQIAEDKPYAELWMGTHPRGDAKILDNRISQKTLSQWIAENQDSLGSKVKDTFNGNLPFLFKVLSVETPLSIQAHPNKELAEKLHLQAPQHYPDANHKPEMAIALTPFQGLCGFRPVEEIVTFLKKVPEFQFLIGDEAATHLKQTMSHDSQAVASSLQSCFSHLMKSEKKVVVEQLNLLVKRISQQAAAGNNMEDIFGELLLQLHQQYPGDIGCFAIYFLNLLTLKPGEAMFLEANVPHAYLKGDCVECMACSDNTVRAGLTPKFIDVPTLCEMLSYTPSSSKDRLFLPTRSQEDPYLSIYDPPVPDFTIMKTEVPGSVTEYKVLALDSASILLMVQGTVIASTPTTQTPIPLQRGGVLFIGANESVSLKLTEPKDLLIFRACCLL

Protein skinhead-1 = target: T2, Protein skinhead-1 (Caenorhabditis elegans, UniProt P34707); assay type: functional
T2 sequence (P34707 whole entry): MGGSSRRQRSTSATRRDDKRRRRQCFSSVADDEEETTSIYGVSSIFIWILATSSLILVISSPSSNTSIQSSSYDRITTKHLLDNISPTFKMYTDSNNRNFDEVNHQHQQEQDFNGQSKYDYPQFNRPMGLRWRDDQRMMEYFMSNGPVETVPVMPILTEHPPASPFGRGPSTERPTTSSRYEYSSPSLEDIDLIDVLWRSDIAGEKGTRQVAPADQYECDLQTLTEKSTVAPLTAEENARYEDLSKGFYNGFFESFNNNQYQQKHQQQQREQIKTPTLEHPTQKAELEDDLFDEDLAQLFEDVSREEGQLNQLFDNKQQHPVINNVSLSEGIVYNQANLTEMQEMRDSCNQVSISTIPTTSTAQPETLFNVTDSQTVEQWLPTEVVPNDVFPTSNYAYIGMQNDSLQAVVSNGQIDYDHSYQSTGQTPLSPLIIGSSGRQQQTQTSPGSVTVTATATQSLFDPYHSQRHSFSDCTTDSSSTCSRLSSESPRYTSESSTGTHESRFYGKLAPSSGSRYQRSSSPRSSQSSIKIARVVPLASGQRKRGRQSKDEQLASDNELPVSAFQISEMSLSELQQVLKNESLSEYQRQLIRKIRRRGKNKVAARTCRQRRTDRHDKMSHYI

HT-1080 = test: cytotoxicity in HT1080 fibrosarcoma cells, cell-based, fluorescence readout (AID 620); assay type: functional; conditions: Homo sapiens
[2] = target: T3, Luciferin 4-monooxygenase (Photinus pyralis, UniProt P08659); test: Counter Screen for Luciferase-based Assay Positives. [Related pubchem assays: 620, 618, 411 ]
[3] = Luminescence Cell-Based Dose Confirmation HTS to Identify Inhibitors of Platelet Dense Granule Release. [Related pubchem assays: 1663 (Primary HTS), 1678 (Summary of Project)]; assay type: functional
[4] = target: T3, Luciferin 4-monooxygenase; test: firefly luciferase enzyme inhibitors, dose response, biochemical, luminescence (AID 1891)
[5] = target: Melanin-concentrating hormone receptor 1 (Homo sapiens, UniProt Q99705); test: Fluorescence-based counterscreen for antagonists of the G-protein coupled receptor 7 (GPR7): cell-based high throughput dose response assay to identify antagonists of the melanin-concentrating hormone receptor 1 (MCHR1).; assay type: functional
[6] = target: Epstein-Barr nuclear antigen 1 (Epstein-Barr virus (strain B95-8) (HHV-4) (Human herpesvirus 4), UniProt P03211); test: EBNA-1 inhibitors, dose response, biochemical, fluorescence polarization, 1536-well (AID 2381); parameters: species or system human gammaherpesvirus 4;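 note: fluorescence polarization of a Cy5 DNA probe bound by EBNA-1 protein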
[7] = target: Lytic switch protein BZLF1 (Epstein-Barr virus (strain B95-8) (HHV-4) (Human herpesvirus 4), UniProt P03206); test: EBV ZTA inhibitors, dose response, counter-screen for EBNA-1 inhibitor project, biochemical, fluorescence polarization, Epstein-Barr virus, 1536-well (AID 2377); parameters: species or system human gammaherpesvirus 4;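 note: fluorescence polarization of Cy5-labelled ZRE DNA probe bound by purified Zta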
[8] = target: ATP-dependent molecular chaperone HSP82 (Candida albicans (strain WO-1) (Yeast), UniProt C4YTQ8); test: loss of DOC-induced GRE-beta-galactosidase reporter signal, dose response, Hsp90 inhibitor project, S. cerevisiae, luminescence (AID 2400); assay type: functional, cell-based;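 note: beta-galactosidase luminescence from glucocorticoid response element reporter as proxy for Hsp90 function; inhibitor potency where signal loss means Hsp90 inhibition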
[9] = target: FAD-linked sulfhydryl oxidase ALR (Homo sapiens, UniProt P55789); test: inhibitors of human ALR sulfhydryl oxidase, dose response, biochemical, H2O2 detection, luminescence, cherry-pick (AID 493248)
Staphylococcus aureus = test: Inhibitors of Bacterial Quorum Sensing Structure Activity Relationship (SAR) Analysis: Dose Response Assay. [Related pubchem assays: 700, 527 ]; assay type: functional, organism-based
[10] = C. albicans growth with fluconazole, confirmation, fluorescence, retest (AID 2467); assay type: functional, cell-based
[11] = NIH-3T3 fibroblast cytotoxicity, dose response, cytotoxicity control, cell-based, fluorescence, Alamar Blue, secondary assay (AID 2327); assay type: functional;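 note: NIH-3T3 mouse fibroblasts cultured with fluconazole at 8 µg/mL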
[12] = target: T4, Serine/threonine-protein phosphatase (Candida dubliniensis (strain CD36 / CBS 7987 / NCPF 3949 / NRRLY-17841) (Yeast), UniProt B9W6M3); test: calcineurin pathway inhibitors in yeast reporter, dose response, S. cerevisiae, CDRE-lacZ, luminescence, secondary (AID 2388); assay type: functional, cell-based;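 note: yeast reporter cells carrying a calcineurin-responsive lacZ construct stimulated with calcium chloride; luminescent beta-galactosidase reporter signal in whole cells rather than isolated phosphatase activity; potency for inhibition where a drop in reporter signal means calcineurin blockade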
T4 sequence (B9W6M3 whole entry): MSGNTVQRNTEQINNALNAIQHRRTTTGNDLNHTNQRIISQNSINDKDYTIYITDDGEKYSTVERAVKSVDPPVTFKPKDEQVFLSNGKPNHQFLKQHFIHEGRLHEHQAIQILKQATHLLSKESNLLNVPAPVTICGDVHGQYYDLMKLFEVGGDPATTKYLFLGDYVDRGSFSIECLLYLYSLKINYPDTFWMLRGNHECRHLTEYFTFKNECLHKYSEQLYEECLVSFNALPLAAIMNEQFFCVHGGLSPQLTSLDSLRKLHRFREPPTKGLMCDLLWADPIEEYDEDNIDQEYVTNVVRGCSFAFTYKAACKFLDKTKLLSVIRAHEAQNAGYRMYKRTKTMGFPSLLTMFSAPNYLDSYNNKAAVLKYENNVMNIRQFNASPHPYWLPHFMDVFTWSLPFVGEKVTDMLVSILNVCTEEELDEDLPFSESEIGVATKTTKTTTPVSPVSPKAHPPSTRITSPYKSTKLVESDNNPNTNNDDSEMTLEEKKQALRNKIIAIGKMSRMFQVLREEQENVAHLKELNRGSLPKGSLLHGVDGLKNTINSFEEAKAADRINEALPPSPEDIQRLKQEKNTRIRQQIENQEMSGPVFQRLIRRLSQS

ORF 73 = target: T5, ORF 73 (Human herpesvirus 8, UniProt O40947); test: inhibitors of C-LANA binding to LBS DNA, dose response, biochemical, fluorescence polarization, cherry-picked samples (AID 504725); parameters: species or system Human gammaherpesvirus 8;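 note: fluorescence polarization of a labeled DNA duplex reporting LANA DNA binding; potency is for inhibitors that block LANA binding to the DNA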
T5 sequence (O40947 whole entry): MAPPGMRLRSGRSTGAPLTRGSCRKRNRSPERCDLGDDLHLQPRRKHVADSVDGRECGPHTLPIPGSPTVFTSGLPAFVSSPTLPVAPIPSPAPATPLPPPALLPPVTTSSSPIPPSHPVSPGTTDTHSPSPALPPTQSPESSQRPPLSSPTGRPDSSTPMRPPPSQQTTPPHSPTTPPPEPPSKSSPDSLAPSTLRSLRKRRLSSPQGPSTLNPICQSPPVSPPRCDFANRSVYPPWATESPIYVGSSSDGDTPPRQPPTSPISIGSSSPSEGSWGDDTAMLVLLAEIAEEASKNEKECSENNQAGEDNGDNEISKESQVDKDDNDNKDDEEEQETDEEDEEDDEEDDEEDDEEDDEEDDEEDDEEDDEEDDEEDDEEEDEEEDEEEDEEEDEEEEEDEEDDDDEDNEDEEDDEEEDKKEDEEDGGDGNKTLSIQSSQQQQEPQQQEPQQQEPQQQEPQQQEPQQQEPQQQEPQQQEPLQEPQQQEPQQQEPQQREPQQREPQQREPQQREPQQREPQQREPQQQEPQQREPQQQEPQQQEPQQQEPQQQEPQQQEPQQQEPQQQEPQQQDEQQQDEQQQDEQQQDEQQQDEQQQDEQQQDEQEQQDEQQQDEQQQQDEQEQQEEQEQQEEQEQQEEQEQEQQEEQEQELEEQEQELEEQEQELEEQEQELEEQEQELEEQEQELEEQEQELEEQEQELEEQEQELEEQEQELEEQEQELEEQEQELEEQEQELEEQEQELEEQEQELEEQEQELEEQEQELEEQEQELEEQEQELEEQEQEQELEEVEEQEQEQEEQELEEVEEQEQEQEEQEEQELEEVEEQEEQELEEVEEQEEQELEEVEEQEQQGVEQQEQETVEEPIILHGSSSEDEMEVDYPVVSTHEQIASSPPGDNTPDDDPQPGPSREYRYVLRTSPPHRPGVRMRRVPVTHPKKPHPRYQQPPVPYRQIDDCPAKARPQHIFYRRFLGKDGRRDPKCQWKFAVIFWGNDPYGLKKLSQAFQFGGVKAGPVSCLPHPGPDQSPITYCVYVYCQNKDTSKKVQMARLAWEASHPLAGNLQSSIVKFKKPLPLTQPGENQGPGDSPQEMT

HeLa = test: HeLa cell cytotoxicity, dose response, cytotoxicity control, 24 h, cherry-picked samples (AID 504726); assay type: functional, cell-based; conditions: Homo sapiens;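 note: potency for cytotoxicity as loss of luminescence signal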
[13] = A High Throughput Confirmatory Assay used to Identify Novel Compounds that Inhibit Mycobacterium Tuberculosis in the absence of Glycerol.; assay type: functional
cells [14] = assay type: functional
Major prion protein = Major prion protein (Homo sapiens, UniProt P04156); assay type: functional, cell-based
[15] = target: Peroxisome proliferator-activated receptor gamma/Nuclear receptor corepressor 2 (Homo sapiens, UniProt P37231+Q9Y618); assay type: functional
cells [16] = test: cells
[17] = target: Photoreceptor-specific nuclear receptor (Homo sapiens, UniProt Q9Y5X4); assay type: functional;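 note: potency for compounds that break the NR2E3 corepressor complex and count as activators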
[18] = A cytotoxicity screen of small molecule inhibitors of the PhoP region in Salmonella typhi identified in the primary screen. [Related pubchem assays: 1850, 1864, 1985 ]; assay type: functional
[19] = inhibitors of firefly luciferase expression or activity, dose response, H4 neuroglioma cells, luminescence (AID 1990); assay type: functional, cell-based
[20] = inhibitors of SNCA 5'UTR-driven reporter translation, confirmation, H4 neuroglioma cells, luminescence (AID 1988); assay type: functional, cell-based
[21] = microbe, parasite or virus in culture; assay type: functional; conditions: Mycobacterium tuberculosis

SMILES: CCCCCC1(C)NC(=S)N(c2ccccc2)N1 (configuration not stated)
- IC50 [1]: > 50 µM (not active)

SMILES: CN(C)c1ccc(N/C=C/C(=O)c2ccco2)cc1
- IC50 (Protein skinhead-1): 76.5 µM (inactive)
- EC50 (HT-1080): > 50 µM (not active)
- EC50 [2]: < 0.2 µM (active)
- EC50 [3]: 0.891 µM (active)
- EC50 [4]: 1.9 µM (active)

SMILES: Cc1cc(=O)oc2cc(OC(=O)c3ccccc3)ccc12
- IC50 [5]: > 43.8 µM (not active)

SMILES: COc1ccccc1CNC(=O)c1ccc2nc3[nH]c4ccccc4c3nc2c1
- IC50 [6]: 14.4 µM (not active)
- IC50 [7]: > 111 µM (not active)

SMILES: O=C1CSC(NC(=O)N2c3ccccc3Sc3ccccc32)=N1
- EC50 [8]: > 150 µM (inactive)
- AC50 [9]: 0.335 µM (active)
- IC50 (Staphylococcus aureus): 0.278 µM (active)
- EC50 [10]: 2.32 µM (active)
- EC50 [11]: > 150 µM (inactive)
- EC50 [12]: > 180 µM (inactive)

SMILES: COC(=O)C(NC(=O)C(C)NC(=O)OCc1ccccc1)C(C)C (configuration not stated)
- AC50 (ORF 73): 70.8 µM (active)
- AC50 (HeLa): 68.2 µM (active)

SMILES: CCCCCC1CC(CC(=O)NC(=S)Nc2ccc([N+](=O)[O-])cc2)C(=O)O1 (configuration not stated)
- IC50 [13]: > 100 µM (active)
- IC50 (cells [14]): 20.3 µM (active)

SMILES: Brc1cc(Br)c2ncnc(N3CCCCC3)c2c1
- IC50 (Major prion protein): 1.38 µM (active)
- IC50 [15]: 2.36 µM (active)
- IC50 (cells [16]): > 138 µM (inactive)
- IC50 [17]: 1.42 µM (active)

SMILES: O=C(CCCCCNc1nc(S)nc2ccccc12)NCCc1ccc(Cl)cc1
- IC50 [6]: 13.4 µM (not active)
- IC50 [7]: > 111 µM (not active)

SMILES: Cc1cc(C)c[n+](CC(=O)c2ccc(NC(=O)c3ccccc3)cc2)c1
- EC50 [18]: > 50 µM (active)

SMILES: CCN(CC)S(=O)(=O)c1ccc(/C(O)=C(\C#N)c2nc3ccccc3n2C)cc1
- EC50 [19]: > 120 µM (not active)
- EC50 [18]: > 50 µM (active)
- EC50 [20]: > 120 µM (not active)

SMILES: O=C1NCC(c2ccccc2)C1C(=O)N/N=C\c1ccc(-c2ccc(Cl)c(Cl)c2)o1 (configuration not stated)
- CC50 [21]: > 40 µM (active)
- IC50 [13]: > 100 µM (active)

SMILES: Cc1ccc(Cl)c(Nc2ccccc2C(=O)O)c1Cl [MECLOFENAMIC ACID]
- IC50 (Staphylococcus aureus): 0.877 µM (active)
